The source of these data is patent publication EP1996603B1, “LIPID A ANTAGONISTS WITH ANTI-SEPTIC SHOCK, ANTI-INFLAMMATORY, ANTI-ISCHEMIA AND ANALGESIC ACTIVITY” (Università Degli Studi Di Milano - Bicocca, priority 2006, dated 2007).

The subject of one data set is BMΦ, BMDC and D1 cells. Nature of the data set: Lipid A-induced TNFα production in macrophages and dendritic cells (ELISA). It counts as cell-based, Mouse. The settings on record: for direct inflammatory function (stimulating cytokines production): cells treated with compound alone, without lipid A. The method, then:
BMΦ and DC were derived from bone marrow cells and divided in two separate cultures. For DC preparation bone marrow cells were cultured in complete IMDM supplemented with 10% supernatant of GM-CSF-transduced B16 tumor cells [R. Soiffer, T. Lynch, M. Mihm, K. Jung, C. Rhuda, J. C. Schmollinger, F. S. Hodi, L. Liebster, P. Lam, S. Mentzer, S. Singer, K. K. Tanabe, A. B. Cosimi, R. Duda, A. Sober, A. Bhan, J. Daley, D. Neuberg, G. Parry, J. Rokovich, L. Richards, J. Drayer, A. Berns, S. Clift, L. K. Cohen, R. C. Mulligan, G. Dranoff, Proc. Natl. Acad. Sci. U S A. 1998, 95(22), 13141-13146]. Fresh medium was added every 2 d. After 7-10 d of culture, cells were analyzed for CD11c expression and used in assays when 90% were CD11c positive. For BMΦ preparation bone marrow cells were cultured in complete IMDM supplemented with 10% supernatant of M-CSF-transduced NIH3T3 cells. Also in this case, fresh medium was added every 2 d. After 7-10 d of culture, cells were analyzed for Mac1 expression and used in assays when at least 90% were Mac1 positive. D1 cells were cultured in complete IMDM supplemented with 10% supernatant of GM-CSF-transduced B16 tumor cells.
D1 cells, BMDC and MΦ were plated in 48 well plates at a concentration of 200000 cells/well in 200µL of medium. One or two hours after plating they were treated with different amounts of compounds Ic and Id for 30 min and then stimulated with Lipid A from Escherichia coli (F583, Rd mutant Sigma, 0.5µM) for 18 h.
Given the pivotal role of early-activated DC and MΦ in directing inflammatory reactions, compounds Ia, Ic and Id were tested for their ability to antagonize the stimulatory activity of lipid A on bone marrow derived macrophages (BMΦ) and DC (BMDC) by interfering with their capacity to induce TNFα production. As source of DC, D1 cells, a long term growth factor (GM-CSF)-dependent DC line [C. Winzler et al. J. Exp. Med. 1997, 185, 317-327] were also used. BMΦ, BMDC and D1 cells were stimulated with lipid A (0.5 µM) after a pre-exposure to compounds Ia, Ic and Id and the amount of TNFα released in the supernatant was measured by ELISA.

A short description of a further data set: Chemical stability. The data set is classed as physicochemical. Particulars: N,O acetal group at C6 in Ia. From the text:
Reagents and conditions: a) ADMA, CSA, DMF, 94%; b) C14H29Br, NaH, DMF, 74%; c) LiAlH4, AlCl3, CH2Cl2/Et2O, 86%; d) Dess- Martin periodinane, CH2Cl2; e) cyclopentylamine, NaBH3CN, AcOH, CH2Cl2, MeOH, 75% over two steps; f) TFA, CH2Cl2, 80%;g) CH3I, Na2CO3, DMF, 94%; h) O-methylhydroxylamine hydrochloride, pyridine, 65% from 6, i) NaBH3CN, glacial AcOH, 92%; l) TFA, CH2Cl2, 90%, m) DHF, PPTS, CH2Cl2, 65%; n) bromocyclopentane, DIPEA.

`CCCCCCCCCCCCCCO[C@H]1[C@@H](OC)O[C@H](CNC2CCCC2)[C@@H](O)[C@@H]1OCCCCCCCCCCCCCC` [Ic, methyl 6-deoxy-6-cyclopentylamino-2,3-di-O-tetradecyl-α-D-glucopyranoside]: the “direct inflammatory function (stimulating cytokines production)” value in the data set with BMΦ, BMDC and D1 cells was “did not show any direct inflammatory function”. Moreover, the “relative potency as inhibitor of lipid A” value in the data set on BMΦ, BMDC and D1 cells (comparison between compounds Ia, Ic and Id) is listed as “a better inhibitor than Ia”. For the same compound, in the data set on BMΦ, BMDC and D1 cells (stimulation with lipid A (0.5 µM) after pre-exposure to compound, TNFα released in the supernatant measured by ELISA, BMΦ, BMDC and D1 cells), the TNFα production result was “interfered with lipid A's action in a dose-dependent manner”.

As to `CCCCCCCCCCCCCCO[C@H]1[C@@H](OC)O[C@H](CN(OC)C2CCCC2)[C@@H](O)[C@@H]1OCCCCCCCCCCCCCC` [Ib, methyl 6-deoxy-6-[N-(cyclopentyl)-N'-methoxyamino)-2,3-di-O-tetradecyl-α-D-glucopyranoside], the chemical stability result in “Chemical stability” is recorded as “more stable than compound (Ia)”.

For the compound `CCCCCCCCCCCCCCO[C@H]1[C@@H](OC)O[C@H](CN(OC)C2CCCO2)[C@@H](O)[C@@H]1OCCCCCCCCCCCCCC` (stereo partly drawn) [Compound Ia, methyl 6-deoxy-6-[N-(1'-tetrahydrofuranyl)-N'-methoxyamino)-2,3-di-O-tetradecyl-α-D-glucopyranoside], the “direct inflammatory function (stimulating cytokines production)” value in the data set with BMΦ, BMDC and D1 cells is reported as “did not show any direct inflammatory function”. Moreover, the chemical stability result in “Chemical stability” is “chemically unstable”.
